Laboratory results as given in patent US4921850A, “3-propenylcephem derivative” (Eisai Co., Ltd., priority 1986, dated 1990).
Values after ≈ are worked out from the molar mass of the structure shown. Like-named read-outs stand apart in the source and are kept apart here.

How the values were obtained:
Experiment in all cases: Anti-bacterial activity (MIC), agar dilution
Type in all cases: cell-based
Ser. marcescens ES-75 = conditions: Serratia marcescens, ES75, 18 h
Experimental: (§1) MIC (μg/ml) were determined by an agar dilution method [Chemotherapy (Japan), 29, 76-79, 1981]. Overnight cultures of the bacterial strains in Mueller-Hinton broth were diluted to final concentration of about 10^6 CFU/ml, and 5 μl of each bacterial suspension was spotted onto Mueller-Hinton agar plates that contained twofold serial dilutions of antibiotics. MICs were measured after incubation for 18 hours at 37° C.

Staph. aureus 209-P = conditions: Staphylococcus aureus, 209P, 18 h, Staph. aureus 209-P; agar dilution, about 10^6 CFU/ml, 18 hours, 37° C.; read-out: MIC
Experimental: as §1

Pseud. aeruginosa EP-01 = conditions: Pseudomonas aeruginosa, EP01, 18 h, Pseud. aeruginosa EP-01; agar dilution, about 10^6 CFU/ml, 18 hours, 37° C.; read-out: MIC
Experimental: as §1

Kleb. pneumoniae EK-6 = conditions: Klebsiella pneumoniae, EK6, 18 h, Kleb. pneumoniae EK-6; agar dilution, about 10^6 CFU/ml, 18 hours, 37° C.; read-out: MIC
Experimental: as §1

Escher. coli NIHJ = conditions: Escherichia coli, 18 h, Escher. coli NIHJ; agar dilution, about 10^6 CFU/ml, 18 hours, 37° C.; read-out: MIC
Experimental: as §1

[1] = system: Morganella morganii EP-14; conditions: Morganella morganii, EP14, 18 h, about 10^6 CFU/ml, 37° C., read-out: MIC
Experimental: as §1

[2] = Ser. marcescens ES-75, agar dilution, about 10^6 CFU/ml, 18 hours, 37° C., read-out: MIC

Row | SMILES | MIC (Ser. marcescens ES-75) | MIC (Staph. aureus 209-P) | MIC (Pseud. aeruginosa EP-01) | MIC (Kleb. pneumoniae EK-6) | MIC (Escher. coli NIHJ) | MIC [1] | MIC (Ser. marcescens ES-75; [2])
1 | NC(=O)C[N+]1(C/C=C/C2=C(C(=O)[O-])N3C(=O)[C@@H](NC(=O)/C(=N\OCF)c4nsc(N)n4)[C@H]3SC2)CCCC1 [Example 19] | 0.5 µg/mL (≈ 0.879 µM) | 0.2 µg/mL (≈ 0.352 µM) | 0.8 µg/mL (≈ 1.41 µM) | ≤ 0.025 µg/mL | ≤ 0.025 µg/mL | ≤ 0.025 µg/mL | 
2 | Nc1nc(/C(=N/OCF)C(=O)N[C@@H]2C(=O)N3C(C(=O)[O-])=C(/C=C/C[N+]4(CCO)CCCC4)CS[C@H]23)ns1 [Example 20] |  | 0.2 µg/mL (≈ 0.36 µM) | 1.56 µg/mL (≈ 2.81 µM) | ≤ 0.025 µg/mL | ≤ 0.025 µg/mL | ≤ 0.025 µg/mL | 0.05 µg/mL (≈ 0.09 µM)
3 | NCC[N+]1(C/C=C/C2=C(C(=O)[O-])N3C(=O)[C@@H](NC(=O)/C(=N\OCF)c4nsc(N)n4)[C@H]3SC2)CCCC1 [Example 22] |  | 0.2 µg/mL (≈ 0.361 µM) | 3.13 µg/mL (≈ 5.64 µM) | 0.05 µg/mL (≈ 0.0902 µM) | 0.05 µg/mL (≈ 0.0902 µM) | 0.05 µg/mL (≈ 0.0902 µM) | 0.2 µg/mL (≈ 0.361 µM)
4 | C[N+]1(C/C=C/C2=C(C(=O)[O-])N3C(=O)[C@@H](NC(=O)/C(=N\OCF)c4nsc(N)n4)[C@H]3SC2)CCN(C=O)CC1 [Example 24] |  | 0.2 µg/mL (≈ 0.352 µM) | 1.56 µg/mL (≈ 2.74 µM) | ≤ 0.025 µg/mL | ≤ 0.025 µg/mL | ≤ 0.025 µg/mL | ≤ 0.025 µg/mL
5 | CC(=N)N1CC[N+](C)(C/C=C/C2=C(C(=O)[O-])N3C(=O)[C@@H](NC(=O)/C(=N\OCF)c4nsc(N)n4)[C@H]3SC2)CC1 [Example 26] |  | 0.2 µg/mL (≈ 0.344 µM) | 0.8 µg/mL (≈ 1.38 µM) | 0.1 µg/mL (≈ 0.172 µM) | 0.1 µg/mL (≈ 0.172 µM) | 0.1 µg/mL (≈ 0.172 µM) | 0.4 µg/mL (≈ 0.688 µM)
6 | Nc1nc(/C(=N/OCF)C(=O)N[C@@H]2C(=O)N3C(C(=O)[O-])=C(/C=C/C[N+]4(CCO)CCN(CCO)CC4)CS[C@H]23)ns1 [Example 27] |  | 0.4 µg/mL (≈ 0.651 µM) | 1.56 µg/mL (≈ 2.54 µM) | ≤ 0.025 µg/mL | 0.05 µg/mL (≈ 0.0813 µM) | 0.05 µg/mL (≈ 0.0813 µM) | 0.1 µg/mL (≈ 0.163 µM)
7 | NC(=O)N1CC[N+](C/C=C/C2=C(C(=O)[O-])N3C(=O)[C@@H](NC(=O)/C(=N\OCF)c4nsc(N)n4)[C@H]3SC2)(CCO)CC1 [Example 28] |  | 0.4 µg/mL (≈ 0.652 µM) | 1.56 µg/mL (≈ 2.54 µM) | 0.05 µg/mL (≈ 0.0815 µM) | 0.05 µg/mL (≈ 0.0815 µM) | 0.05 µg/mL (≈ 0.0815 µM) | 0.2 µg/mL (≈ 0.326 µM)
8 | Nc1nc(/C(=N/OCF)C(=O)N[C@@H]2C(=O)N3C(C(=O)[O-])=C(/C=C/C[N+]4(CCO)CCN(S(N)(=O)=O)CC4)CS[C@H]23)ns1 [Example 29] |  | 0.4 µg/mL (≈ 0.616 µM) | 0.8 µg/mL (≈ 1.23 µM) | ≤ 0.025 µg/mL | ≤ 0.025 µg/mL | ≤ 0.025 µg/mL | 0.1 µg/mL (≈ 0.154 µM)
9 | NC(=O)N1CC[N+](C/C=C/C2=C(C(=O)[O-])N3C(=O)[C@@H](NC(=O)/C(=N\OCF)c4nsc(N)n4)[C@H]3SC2)(CC(O)CO)CC1 (stereo partly drawn) [Example 30] |  | 0.4 µg/mL (≈ 0.621 µM) | 1.56 µg/mL (≈ 2.42 µM) | 0.05 µg/mL (≈ 0.0777 µM) | 0.05 µg/mL (≈ 0.0777 µM) | 0.05 µg/mL (≈ 0.0777 µM) | 0.2 µg/mL (≈ 0.311 µM)
10 | NC(=O)C[N+]1(C/C=C/C2=C(C(=O)[O-])N3C(=O)[C@@H](NC(=O)/C(=N\OCF)c4nsc(N)n4)[C@H]3SC2)CCN(C(N)=O)CC1 [Example 31] |  | 0.4 µg/mL (≈ 0.638 µM) | 1.56 µg/mL (≈ 2.49 µM) | ≤ 0.025 µg/mL | 0.05 µg/mL (≈ 0.0798 µM) | ≤ 0.025 µg/mL | 0.1 µg/mL (≈ 0.16 µM)
11 | NC(=O)NCC[N+]1(C/C=C/C2=C(C(=O)[O-])N3C(=O)[C@@H](NC(=O)/C(=N\OCF)c4nsc(N)n4)[C@H]3SC2)CCN(C(N)=O)CC1 [Example 32] |  | 0.2 µg/mL (≈ 0.305 µM) | 1.56 µg/mL (≈ 2.38 µM) | ≤ 0.025 µg/mL | ≤ 0.025 µg/mL | ≤ 0.025 µg/mL | 0.05 µg/mL (≈ 0.0763 µM)
12 | NC(=O)C[N+]1(C/C=C/C2=C(C(=O)[O-])N3C(=O)[C@@H](NC(=O)/C(=N\OCF)c4nsc(N)n4)[C@H]3SC2)CCOCC1 [Example 35] |  | 0.4 µg/mL (≈ 0.684 µM) | 0.8 µg/mL (≈ 1.37 µM) | ≤ 0.025 µg/mL | 0.05 µg/mL (≈ 0.0855 µM) | 0.05 µg/mL (≈ 0.0855 µM) | 0.1 µg/mL (≈ 0.171 µM)
13 | NC(=O)NCC[N+]1(C/C=C/C2=C(C(=O)[O-])N3C(=O)[C@@H](NC(=O)/C(=N\OCF)c4nsc(N)n4)[C@H]3SC2)CCOCC1 [Example 36] |  | 0.2 µg/mL (≈ 0.326 µM) | 1.56 µg/mL (≈ 2.54 µM) | ≤ 0.025 µg/mL | 0.05 µg/mL (≈ 0.0815 µM) | 0.05 µg/mL (≈ 0.0815 µM) | 0.1 µg/mL (≈ 0.163 µM)
14 | Nc1nc(/C(=N/OCF)C(=O)N[C@@H]2C(=O)N3C(C(=O)[O-])=C(/C=C/C[N+]4(CCO)CCOCC4)CS[C@H]23)ns1 [Example 37] |  | 0.2 µg/mL (≈ 0.35 µM) | 1.56 µg/mL (≈ 2.73 µM) | ≤ 0.025 µg/mL | 0.05 µg/mL (≈ 0.0875 µM) | 0.05 µg/mL (≈ 0.0875 µM) | 0.1 µg/mL (≈ 0.175 µM)
15 | Nc1nc(/C(=N/OCF)C(=O)N[C@@H]2C(=O)N3C(C(=O)[O-])=C(/C=C/C[N+]4(CC(O)CO)CCOCC4)CS[C@H]23)ns1 (stereo partly drawn) [Example 38] |  | 0.4 µg/mL (≈ 0.665 µM) | 1.56 µg/mL (≈ 2.59 µM) | 0.05 µg/mL (≈ 0.0831 µM) | 0.1 µg/mL (≈ 0.166 µM) | 0.1 µg/mL (≈ 0.166 µM) | 0.2 µg/mL (≈ 0.332 µM)
16 | CC(O)C[N+]1(C/C=C/C2=C(C(=O)[O-])N3C(=O)[C@@H](NC(=O)/C(=N\OCF)c4nsc(N)n4)[C@H]3SC2)CCOCC1 (stereo partly drawn) [Example 39] |  | 0.2 µg/mL (≈ 0.342 µM) | 1.56 µg/mL (≈ 2.66 µM) | ≤ 0.025 µg/mL | 0.05 µg/mL (≈ 0.0854 µM) | 0.05 µg/mL (≈ 0.0854 µM) | 0.1 µg/mL (≈ 0.171 µM)
17 | NC(=O)C[N+]1(C/C=C/C2=C(C(=O)[O-])N3C(=O)[C@@H](NC(=O)/C(=N\OCF)c4nsc(N)n4)[C@H]3SC2)CCC(C(N)=O)CC1 (stereo partly drawn) [Example 40] |  | 0.4 µg/mL (≈ 0.639 µM) | 0.8 µg/mL (≈ 1.28 µM) | ≤ 0.025 µg/mL | ≤ 0.025 µg/mL | ≤ 0.025 µg/mL | ≤ 0.025 µg/mL
18 | Nc1nc(/C(=N/OCF)C(=O)N[C@@H]2C(=O)N3C(C(=O)[O-])=C(/C=C/C[N+]4(CCO)CC=C(C=NO)CC4)CS[C@H]23)ns1 (stereo partly drawn) [Example 42] |  | 0.2 µg/mL (≈ 0.328 µM) | 1.56 µg/mL (≈ 2.55 µM) | 0.05 µg/mL (≈ 0.0819 µM) | ≤ 0.025 µg/mL | ≤ 0.025 µg/mL | ≤ 0.025 µg/mL
19 | NC(=O)C1=CC[N+](C/C=C/C2=C(C(=O)[O-])N3C(=O)[C@@H](NC(=O)/C(=N\OCF)c4nsc(N)n4)[C@H]3SC2)(CCO)CC1 (stereo partly drawn) [Example 43] |  | 0.2 µg/mL (≈ 0.328 µM) | 0.8 µg/mL (≈ 1.31 µM) | ≤ 0.025 µg/mL | ≤ 0.025 µg/mL | ≤ 0.025 µg/mL | ≤ 0.025 µg/mL
20 | CC[N+](C)(C/C=C/C1=C(C(=O)[O-])N2C(=O)[C@@H](NC(=O)/C(=N\OCF)c3nsc(N)n3)[C@H]2SC1)CCO (stereo partly drawn) [Example 44] |  | 0.4 µg/mL (≈ 0.736 µM) | 1.56 µg/mL (≈ 2.87 µM) | ≤ 0.025 µg/mL | 0.05 µg/mL (≈ 0.092 µM) | 0.05 µg/mL (≈ 0.092 µM) | 0.1 µg/mL (≈ 0.184 µM)
21 | CC[N+](C)(CC#N)C/C=C/C1=C(C(=O)[O-])N2C(=O)[C@@H](NC(=O)/C(=N\OCF)c3nsc(N)n3)[C@H]2SC1 (stereo partly drawn) [Example 45] |  | 0.4 µg/mL (≈ 0.743 µM) | 0.8 µg/mL (≈ 1.49 µM) | ≤ 0.025 µg/mL | ≤ 0.025 µg/mL | ≤ 0.025 µg/mL | 0.1 µg/mL (≈ 0.186 µM)
22 | CC(=O)NCC[N+](C/C=C/C1=C(C(=O)[O-])N2C(=O)[C@@H](NC(=O)/C(=N\OCF)c3nsc(N)n3)[C@H]2SC1)(CCO)CCO [Example 51] |  | 0.4 µg/mL (≈ 0.634 µM) | 1.56 µg/mL (≈ 2.47 µM) | 0.05 µg/mL (≈ 0.0793 µM) | 0.05 µg/mL (≈ 0.0793 µM) | 0.05 µg/mL (≈ 0.0793 µM) | 0.05 µg/mL (≈ 0.0793 µM)
23 | C[N+](C)(C/C=C/C1=C(C(=O)[O-])N2C(=O)[C@@H](NC(=O)/C(=N\OCF)c3nsc(N)n3)[C@H]2SC1)NC(N)=O [Example 53] |  | 0.8 µg/mL (≈ 1.47 µM) | 0.8 µg/mL (≈ 1.47 µM) | 0.05 µg/mL (≈ 0.092 µM) | 0.05 µg/mL (≈ 0.092 µM) | 0.05 µg/mL (≈ 0.092 µM) | 0.1 µg/mL (≈ 0.184 µM)
